pEC50: −log10 of the molar value.
Key:
human TLR8 (hTLR8) = target: T1, human TLR8 (hTLR8) (Homo sapiens, UniProt Q9NR97); assay: Human TLR8 agonist activity assay (measured in a similar manner); assay type: cell-based; settings: HEK-Blue TLR cells, SEAP reporter, measured in a similar manner to TLR7; some values average of multiple measurements
T1 construct: expressed in transfected cells
T1 sequence (Q9NR97 27-1041): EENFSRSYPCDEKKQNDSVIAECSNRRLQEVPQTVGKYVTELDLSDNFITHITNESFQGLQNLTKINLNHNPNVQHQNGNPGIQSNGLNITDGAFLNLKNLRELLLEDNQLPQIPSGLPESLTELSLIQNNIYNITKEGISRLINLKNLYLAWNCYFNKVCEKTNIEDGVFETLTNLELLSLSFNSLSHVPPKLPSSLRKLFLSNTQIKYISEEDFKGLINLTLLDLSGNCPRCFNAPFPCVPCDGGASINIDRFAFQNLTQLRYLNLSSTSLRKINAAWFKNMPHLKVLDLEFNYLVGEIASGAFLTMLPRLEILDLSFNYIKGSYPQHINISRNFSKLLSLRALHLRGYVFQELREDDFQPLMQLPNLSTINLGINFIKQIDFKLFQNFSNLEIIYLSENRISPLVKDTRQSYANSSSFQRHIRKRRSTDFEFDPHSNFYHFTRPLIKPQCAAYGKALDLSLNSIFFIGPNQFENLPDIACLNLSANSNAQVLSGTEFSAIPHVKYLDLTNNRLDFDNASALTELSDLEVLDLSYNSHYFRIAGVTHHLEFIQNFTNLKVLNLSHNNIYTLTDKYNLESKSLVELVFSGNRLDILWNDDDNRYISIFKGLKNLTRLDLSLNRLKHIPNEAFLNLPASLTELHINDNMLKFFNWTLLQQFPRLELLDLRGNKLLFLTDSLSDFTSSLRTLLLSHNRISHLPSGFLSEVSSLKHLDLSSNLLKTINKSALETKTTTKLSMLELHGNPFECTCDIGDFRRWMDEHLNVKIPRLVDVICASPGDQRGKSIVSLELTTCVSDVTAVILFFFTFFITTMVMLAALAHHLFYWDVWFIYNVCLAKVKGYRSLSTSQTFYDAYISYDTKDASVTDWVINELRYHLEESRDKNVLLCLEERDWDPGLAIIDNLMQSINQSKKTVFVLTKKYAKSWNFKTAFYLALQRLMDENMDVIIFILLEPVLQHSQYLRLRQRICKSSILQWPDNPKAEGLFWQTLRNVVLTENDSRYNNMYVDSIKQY
Procedure: (§1) This procedure describes a method for assaying human TLR7 (hTLR7) and human TLR8 (hTLR8) agonist activity of the compounds disclosed herein.
HEK-Blue™ TLR7 cells were added to each well of a 384-well tissue-culture plate (15,000 cells per well) and incubated 16-18 h at 37° C., 5% CO2. Compounds (100 nL) were dispensed into wells containing the HEK-Blue™ TLR cells and the treated cells were incubated at 37° C., 5% CO2. After 18 h, ten microliters 5 of freshly prepared Quanti-Blue™ reagent (Invivogen) was added to each well and incubated for 30 min (37° C., […]). SLAP levels were measured using an Envision plate reader (OD=620 nm). […] Some of the reported activities were the average of multiple measurements.
TLR8 activity was measured in a similar manner.

human TLR7 (hTLR7) = target: T2, human TLR7 (hTLR7) (Homo sapiens, UniProt Q9NYK1); assay: Human TLR7 agonist activity assay (HEK-Blue TLR7 SEAP reporter); assay type: cell-based; settings: HEK-Blue TLR7 cells, 18 h incubation, Quanti-Blue, OD 620 nm, some values average of multiple measurements
T2 construct: host or cells: HEK-Blue TLR7 cells (engineered human embryonic kidney cells)
T2 sequence (Q9NYK1 27-1049): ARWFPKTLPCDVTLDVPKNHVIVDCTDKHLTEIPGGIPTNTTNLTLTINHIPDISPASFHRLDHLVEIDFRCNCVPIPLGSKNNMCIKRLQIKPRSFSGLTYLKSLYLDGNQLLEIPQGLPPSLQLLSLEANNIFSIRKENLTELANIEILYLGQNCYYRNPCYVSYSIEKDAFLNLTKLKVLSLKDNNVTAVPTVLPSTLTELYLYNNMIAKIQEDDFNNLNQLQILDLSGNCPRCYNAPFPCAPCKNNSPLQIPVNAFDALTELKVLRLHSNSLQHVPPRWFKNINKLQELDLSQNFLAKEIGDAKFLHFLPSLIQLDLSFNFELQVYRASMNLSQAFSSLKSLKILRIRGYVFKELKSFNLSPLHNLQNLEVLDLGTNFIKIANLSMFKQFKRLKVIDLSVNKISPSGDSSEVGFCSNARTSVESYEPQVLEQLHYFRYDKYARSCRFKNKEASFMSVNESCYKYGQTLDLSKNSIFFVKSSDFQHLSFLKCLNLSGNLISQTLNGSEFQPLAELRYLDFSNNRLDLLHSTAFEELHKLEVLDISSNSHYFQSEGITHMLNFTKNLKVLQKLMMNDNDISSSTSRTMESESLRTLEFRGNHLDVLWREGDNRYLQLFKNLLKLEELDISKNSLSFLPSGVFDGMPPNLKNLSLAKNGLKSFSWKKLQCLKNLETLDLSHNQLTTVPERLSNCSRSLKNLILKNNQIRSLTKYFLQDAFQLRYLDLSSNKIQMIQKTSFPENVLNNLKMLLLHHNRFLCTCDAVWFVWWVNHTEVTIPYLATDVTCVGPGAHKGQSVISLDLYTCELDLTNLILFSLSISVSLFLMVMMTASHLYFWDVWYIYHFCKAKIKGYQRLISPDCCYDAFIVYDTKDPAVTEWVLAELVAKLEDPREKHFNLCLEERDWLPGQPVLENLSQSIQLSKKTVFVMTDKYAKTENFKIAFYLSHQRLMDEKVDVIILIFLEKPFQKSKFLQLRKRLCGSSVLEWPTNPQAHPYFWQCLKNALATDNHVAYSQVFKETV
Procedure: as §1
HEK-Blue™ TLR7 cells were added to each well of a 384-well tissue-culture plate (15,000 cells per well) and incubated 16-18 h at 37° C., 5% CO2. Compounds (100 nL) were dispensed into wells containing the HEK-Blue™ TLR cells and the treated cells were incubated at 37° C., 5% CO2. After 18 h, ten microliters 5 of freshly prepared Quanti-Blue™ reagent (Invivogen) was added to each well and incubated for 30 min (37° C., […]). SLAP levels were measured using an Envision plate reader (OD=620 nm). The half maximal effective concentration values (ECSO; compound concentration which induced a response halfway between the assay baseline and maximum) were calculated. Some of the reported activities were the average of multiple measurements.

pEC50 (human TLR8 (hTLR8))	pEC50 (human TLR7 (hTLR7))	SMILES
6.69	6.49	CCCCN(CCO)c1nc(N)nc2cn(Cc3ccc(CNC4CCOC(C)(C)C4)cc3OC)nc12 (racemic) [Compound 103, 2-((5-Amino-2-(4-(((2,2-dimethyltetrahydro-2H-pyran-4-yl)amino)methyl)-2-methoxybenzyl)-2H-pyrazolo[4,3-d]pyrimidin-7-yl)(butyl)amino) ethan-1-ol]
6.34	6.18	CCCCN(CCO)c1nc(N)nc2cn(Cc3ccc(CNC4CCOC(C)(C)C4)cc3OC)nc12 (single isomer, unassigned) [Compound 111, 2-((5-Amino-2-(4-(((2,2-dimethyltetrahydro-2H-pyran-4-yl)amino)methyl)-2-methoxybenzyl)-2H-pyrazolo[4,3-d]pyrimidin-7-yl)(butyl)amino) ethan-1-ol]
6.25	6.23	CCCCN(CCO)c1nc(N)nc2cn(Cc3ccc(CNC4CCOC(C)(C)C4)cc3OC)nc12 (single isomer, unassigned) [Compound 112, 2-((5-Amino-2-(4-(((2,2-dimethyltetrahydro-2H-pyran-4-yl)amino)methyl)-2-methoxybenzyl)-2H-pyrazolo[4,3-d]pyrimidin-7-yl)(butyl)amino) ethan-1-ol]
6.25	5.86	CCCCN(CCO)c1nc(N)nc2cn(Cc3ccc(CNC4CCOC(C)C4)cc3OC)nc12 (single isomer, unassigned) [Compound 121]
6.72	6.25	CCCCN(CCO)c1nc(N)nc2cn(Cc3ccc(CNC4CCOC(C)C4)cc3OC)nc12 (single isomer, unassigned) [Compound 122]
5.94	5.89	CCCCN(CCO)c1nc(N)nc2cn(Cc3ccc(CNC4CCC4)cc3OC)nc12 [Compound 1]
6.00	5.87	CCCCN(CCO)c1nc(N)nc2cn(Cc3ccc(CN4CCCCC4)cc3OC)nc12 [Compound 2]
6.22	6.01	CCCCN(CCO)c1nc(N)nc2cn(Cc3ccc(CNC4CCOCC4)cc3OC)nc12 [Compound 3]
6.20	6.16	CCCCN(CCO)c1nc(N)nc2cn(Cc3ccc(CN4CCCC4)cc3OC)nc12 [Compound 4]
6.15	6.19	CCCCN(CCO)c1nc(N)nc2cn(Cc3ccc(CN4CC(OC)C4)cc3OC)nc12 [Compound 5]
6.22	6.01	CCCCN(CCO)c1nc(N)nc2cn(Cc3ccc(CNC(C)(C)C)cc3OC)nc12 [Compound 7]
5.90	5.79	CCCCN(CCO)c1nc(N)nc2cn(Cc3ccc(CNCC(C)(C)O)cc3OC)nc12 [Compound 9]
5.76	–	CCCN(CCO)c1nc(N)nc2cn(Cc3ccc(CNC4CCC4)cc3OC)nc12 [Compound 43]
6.16	–	CCCCN(CCO)c1nc(N)nc2cn(Cc3ccc(CNC4CCOC(C)C4)cc3OC)nc12 (centres unmarked) [Compound 126]
6.34	–	CCCCN(CCO)c1nc(N)nc2cn(Cc3ccc(CNC4(COC)CCOCC4)cc3OC)nc12 [Compound 165]

More lines, now with the values behind:

SMILES	pEC50 (human TLR8 (hTLR8))	pEC50 (human TLR7 (hTLR7))
CCCCN(c1nc(N)nc2cn(Cc3ccc(CN4CCCCC4)cc3OC)nc12)C(C)CO (racemic) [Compound 49, 2-((5-amino-2-(2-methoxy-4-(piperidin-1-ylmethyl)benzyl)-2H-pyrazolo[4,3-d]pyrimidin-7-yl)(butyl)amino)propan-1-ol]	6.17	6.41
CCCCN(c1nc(N)nc2cn(Cc3ccc(CN4CCCCC4)cc3OC)nc12)C(C)CO (single isomer, unassigned) [Compound 49-1, 2-((5-amino-2-(2-methoxy-4-(piperidin-1-ylmethyl)benzyl)-2H-pyrazolo[4,3-d]pyrimidin-7-yl)(butyl)amino)propan-1-ol]	6.02	6.43
CCCCN(c1nc(N)nc2cn(Cc3ccc(CN4CCCCC4)cc3OC)nc12)C(C)CO (single isomer, unassigned) [Compound 49-2, 2-((5-amino-2-(2-methoxy-4-(piperidin-1-ylmethyl)benzyl)-2H-pyrazolo[4,3-d]pyrimidin-7-yl)(butyl)amino)propan-1-ol]	6.17	6.41
CCCCN(CCO)c1nc(N)nc2cn(Cc3ccc(CN4CC5(CC(OC)C5)C4)cc3OC)nc12 [Compound 6]	6.05	6.17
CCCCN(CCO)c1nc(N)nc2cn(Cc3ccc(CNCC4CC5(CCC5)C4)c4cccnc34)nc12 [Compound 67]	5.67	–
CCC[C@@H](CO)N(C)c1nc(N)nc2cn(Cc3ccc(CN4CCCC4)cc3OC)nc12 [Compound 87]	5.74	–
CCCCN(CCO)c1nc(N)nc2cn(Cc3cnc(CN[C@H]4C[C@H](OC)C4)cc3OC)nc12 [Compound 124]	5.73	–
CCCCN(CCO)c1nc(N)nc2cn(Cc3ccc(CNCCO)cc3C(F)F)nc12 [Compound 129]	5.57	–
CCCCN(CCO)c1nc(N)nc2cn(Cc3ccc(CNC4CC5(COC5)C4)cc3)nc12 [Compound 159]	5.92	–
CCCCN(CCO)c1nc(N)nc2cn(Cc3ccc(CNCCO)cc3)nc12 [Compound 160]	5.70	–
CCCCN(CCO)c1nc(N)nc2cn(Cc3ccc(CNC4(C)CCC4)cc3C(F)F)nc12 [Compound 167]	5.79	–
CCCCN(CCO)c1nc(N)nc2cn(Cc3ccc(CNC4CCC(F)(F)CC4)c4scnc34)nc12 [Compound 203]	5.62	–
CCCCN(CCO)c1nc(N)nc2cn(Cc3ccc(CNC4CCOCC4)c4cn[nH]c34)nc12 [Compound 204]	5.90	–
CCCCN(CCO)c1nc(N)nc2cn(Cc3ccc(CN[C@H]4CCOC4)c4nccnc34)nc12 [Compound 205]	5.87	–
CCCCN(CCO)c1nc(N)nc2cn(Cc3ccc(CNC4CCOC(C)(C)C4)c4cn[nH]c34)nc12 (centres unmarked) [Compound 209]	5.55	–
CCCCN(CCO)c1nc(N)nc2cn(Cc3ccc(CNC4CCOCC4)c4ncsc34)nc12 [Compound 210]	5.73	–
